# Data from US5002969A, “Pharmaceutical compositions containing titanocene complexes and use of these complexes as cytostatic agents” (priority 1985, dated 1991).
# Columns and labels:
# Ehrlich ascites tumor = experiment: Activity against Ehrlich Ascites Tumor; type: in vivo, Female CF1 mice; conditions: single i.p. dose, 24 h after tumor inoculation
# Experimental: Female CF1 mice are each given about 6×10^6 Ehrlich ascites tumor cells by means of intraperitoneal injection and, 24 hours later, a single intraperitoneal dose of substance dose range of 20 to 500 mg/kg) in physiological saline solution (0.4 ml). In each case 5 to 10 animals are tested per dose. If appropriate, the preparation can be buffered to a pH of 4 to 7, for example with sodium bicarbonate or tris-(hydroxymethyl)-aminomethane, in order to avoid local irritation at the injection site. A group of untreated control animals which were injected intraperitoneally with 0.4 ml of physiological saline solution without administration of the substance is also run for each test series.
# The tumor development in the individual dose ranges is evaluated by means of the weight course and survival time. The dose-dependent number of tumor deaths, toxicity deaths and surviving, and the associated percentage increase in the average survival time are determined for each substance.
# ascitic Sarcoma 180 = experiment: Activity against ascitic Sarcoma 180; type: in vivo, female NMRI mice; conditions: for MST (mean survival time): mean (range); for Survivors/Animals Treated: day 80
# Source text: Each animal obtained about 10^7 tumor cells.
# Every day occuring deaths were noted.
# B16 Melanoma = experiment: Activity against B16 Melanoma; type: in vivo, female B6 D2 F1 mice; conditions: day 10
# Experimental: (§1) The B16 melanoma and colon 38 carcinoma used were obtained from the NCI Liasion Office, Institut Jules Bordet, Brussels, Belgium and, for propagation, were kept as solid, subcutaneously growing tumor lines on male C57BL/6J mice. For testing, the tumors were transplanted to female B6 D2 F1 mice. All animals were kept under standard conditions (22°-23° C., tap water and altromin food ad libitum, 12-h light-dark rhythm).
# (§2) For tumor transplantation on day 0 of the testing experiments, solid tumors were removed from donor mice, minced with scissors and reduced to small particles. After suspension in twofold volumes of Hank's balanced salt solution, volumes of 0.3 ml were inoculated subcutaneously into the axillary region, resulting in the growth of solitary solid tumors.
# (§3) The test compounds were administered either as a single injection on day 1 or as three injections on days 1, 3 and 5, or as five injections on days 1, 3, 5, 7 and 9. The different doses applied and the animal distribution are recorded in table 4. The substances, dissolved or suspended in a DMSO-saline mixture (1/9=v/v), were always injected intraperitoneally. The concentrations were selected in such a manner that each mouse received a total volume of 0.4 to 0.5 ml. Control animals only obtained one, three or five injections of the DMSO-saline mixture (0.5 ml/animal) without drug addition.
# (§4) The number of deaths was recorded daily. Deaths occuring within 7 days (single injection), 11 days (three injections) or 15 days (five injections) after tumor transplantation were defined as deaths due to substance toxicity.
# (§5) In the case of B16 melonoma, the tumors were removed and weighed on day 10 for the single and three injections or on day 15 for the five injections. Colon 38 carcinomas were always evaluated on day 15 of the experiment.
# Colon 38 Carcinoma = experiment: Activity against Colon 38 Carcinoma; type: in vivo, female B6 D2 F1 mice; conditions: day 15
# Experimental: as §1, §2, §3, §4, §5
# Rectum Adenocarcinoma = experiment: Activity against heterotransplanted human rectum adenocarcinoma; type: in vivo; conditions: day 25
# Experimental: (§6) The same testing procedure as in the tests with B16 melanoma and colon 38 carcinoma was employed. The test compounds were applied in equivalent and equitoxic doses, subdivided into five injections. The first injection was administered on day 8 (mammary carcinoma), day 10 (adenocarcinoma of rectum and lung) and day 26 (small cell lung carcinoma) of the tumor transplantation. The T/C values were determined 3 days after the last substance injection, i.e., on day 23 (mammary carcinoma), day 25 (adenocarcinoma of rectum and lung) and day 41 (small cell lung carcinoma).
# Lung Adenocarcinoma = experiment: Activity against heterotransplanted human lung adenocarcinoma; type: in vivo; conditions: day 25
# Experimental: as §6
# [1] = tested on: Lung Small Cell Carcinoma; experiment: Activity against heterotransplanted human small cell lung carcinoma; type: in vivo; conditions: day 41
# Experimental: as §6
# Mammary Carcinoma = experiment: Activity against heterotransplanted human mammary carcinoma; type: in vivo, human tumor xenograft tumor xenograft tumor xenograft; conditions: day 23
# Experimental: as §6
# solid Sarcoma 180 = experiment: Activity against solid Sarcoma 180; conditions: for T/C / Tumor Weight: day 9; for Tumor Weight: mean ± SD
# Experimental: The sarcoma 180 used in the present study was obtained from the Deutsche Krebsforschungszentrum (Heidelberg, Germany). It was propagated as an intraperitoneally growing tumor line on female NMRI mice which were kept under standard conditions (altromin food and tap water ad libitum, 12-h dark-light rhythm).
# Antitumor testing was performed against sarcoma 180 in fluid ascitic as well as in solid, subcutaneously growing form. For testing against ascitic or solid sarcoma 180, the ascitic tumor of donor mice was harvested, diluted 1:3 (v:v) with saline and injected either into the peritoneal cavity or, subcutaneously, into the axillary region of female NMRI mice. Each animal obtained about 10^7 tumor cells. The day of tumor transplantation was defined as day 0 of the experiment.
# Before administration of the test compounds, samples corresponding to the applied doses were dissolved in DMSO, filled up with ninefold volumes of saline and applied to mice in volumes of 0.02 ml per g of body weight. The different doses were either given as a single injection on day 1 or as triple injections on days 1, 3 and 5. […] The untreated, tumor-bearing control animals only received injections of the DMSO/saline mixture (0.02 ml/g). Every day occuring deaths were noted. Deaths within 8 days after tumor transplantation were defined as toxic deaths due to substance toxicity. In the case of ascitic sarcoma 180, the parameters evaluated were the values of mean survival time (MST) and of increase in life span (ILS); the latter was calculated by relating the mean survival time of a treated group to that of the corresponding control group expressed as a percentage and by subtracting 100%. The key date for the evaluation of the experiment and for determining the number of surviving (cured) animals was day 80. In the case of solid sarcoma 180, the tumors were removed on day 9 after transplantation and weighted to an accuracy of ±1 mg. From tumor weights of treated and control animals, the T/C ratios were calculated as follows: [formula]
compound,measurement,setting,value
"Cl.Nc1ccc([S][Ti]([Cl])([CH]2C=CC=C2)[CH]2C=CC=C2)cc1 [Compound 2, p-aminothiophenolato-chloro-bis(.eta.^5 -cyclopentadienyl)titanium(IV)-hydrochloride]",Optimal Treating Rate,Ehrlich ascites tumor,100%
same,Therapeutic Index (LD50/ED90),Ehrlich ascites tumor,"4,4"
Titanocene dibromide [reference compound],ILS (increase in life span),"ascitic Sarcoma 180; 1 × 50 mg/kg, group of 5",61%
same,MST (mean survival time),"ascitic Sarcoma 180; 1 × 50 mg/kg, group of 5","28,4 (22-34) d"
same,ILS (increase in life span),ascitic Sarcoma 180; 1 × 60 mg/kg,128%
same,Survivors/Animals Treated,ascitic Sarcoma 180; 1 × 60 mg/kg,1/5
same,MST (mean survival time),ascitic Sarcoma 180; 1 × 60 mg/kg,"40,2 (20-80) d"
same,T/C,B16 Melanoma; 1 × 60 mg/kg i.p.,42%
same,T/C,B16 Melanoma; 3 × 50 mg/kg i.p.,48%
same,T/C,B16 Melanoma; 3 × 60 mg/kg i.p.,44%
same,T/C,Colon 38 Carcinoma; 1 × 60 mg/kg i.p.,36%
same,T/C,Colon 38 Carcinoma; 3 × 50 mg/kg i.p.,51%
same,T/C (based on mean relative volume of tumor),Rectum Adenocarcinoma; 5 × 20 mg/kg,48%
same,T/C (based on mean relative volume of tumor),Lung Adenocarcinoma; 5 × 20 mg/kg,53%
same,T/C (based on mean relative volume of tumor),[1]; 5 × 20 mg/kg,96%
same,T/C (based on mean relative volume of tumor),Mammary Carcinoma; 5 × 20 mg/kg,44%
same,T/C,solid Sarcoma 180; 1 × 50 mg/kg,108%
same,Tumor Weight,solid Sarcoma 180; 1 × 50 mg/kg,"1,27 ± 0,37 g"
same,T/C,solid Sarcoma 180; 1 × 60 mg/kg,94%
same,Tumor Weight,solid Sarcoma 180; 1 × 60 mg/kg,"1,21 ± 0,37 g"
same,T/C,solid Sarcoma 180; 3 × 50 mg/kg,53%
same,Tumor Weight,solid Sarcoma 180; 3 × 50 mg/kg,"0,69 ± 0,17 g"
same,Toxicity Deaths/Animals Treated,solid Sarcoma 180; 3 × 60 mg/kg,1/5
same,T/C,solid Sarcoma 180; 3 × 60 mg/kg,37%
same,Tumor Weight,solid Sarcoma 180; 3 × 60 mg/kg,"0,48 ± 0,10 g"
"O=C(O)C=CC(=O)[O][Ti+2][O]C(=O)C=CC(=O)O.c1cc[cH-]c1.c1cc[cH-]c1 [Compound 3, Bis(hydrogenmaleinato)bis(.eta.^5 -cyclopentadienyl)titanium(IV)]",Optimal Treating Rate,Ehrlich ascites tumor,100%
same,Therapeutic Index (LD50/ED90),Ehrlich ascites tumor,"3,8"
same,ILS (increase in life span),ascitic Sarcoma 180; 1 × 80 mg/kg,95%
same,Survivors/Animals Treated,ascitic Sarcoma 180; 1 × 80 mg/kg,1/5
same,MST (mean survival time),ascitic Sarcoma 180; 1 × 80 mg/kg,"32,2 (15-80) d"
same,ILS (increase in life span),ascitic Sarcoma 180; 1 × 120 mg/kg,125%
same,Survivors/Animals Treated,ascitic Sarcoma 180; 1 × 120 mg/kg,1/5
same,MST (mean survival time),ascitic Sarcoma 180; 1 × 120 mg/kg,"37,2 (21-80) d"
same,T/C,B16 Melanoma; 1 × 120 mg/kg i.p.,89%
same,T/C,B16 Melanoma; 3 × 100 mg/kg i.p.,50%
same,T/C,Colon 38 Carcinoma; 1 × 120 mg/kg i.p.,72%
same,T/C,Colon 38 Carcinoma; 3 × 100 mg/kg i.p.,50%
same,T/C (based on mean relative volume of tumor),Rectum Adenocarcinoma; 5 × 30 mg/kg,89%
same,T/C (based on mean relative volume of tumor),Lung Adenocarcinoma; 5 × 30 mg/kg,35%
same,T/C (based on mean relative volume of tumor),[1]; 5 × 30 mg/kg,65%
same,T/C (based on mean relative volume of tumor),Mammary Carcinoma; 5 × 30 mg/kg,40%
same,T/C,solid Sarcoma 180; 1 × 80 mg/kg,95%
same,Tumor Weight,solid Sarcoma 180; 1 × 80 mg/kg,"1,13 ± 0,18 g"
same,T/C,solid Sarcoma 180; 1 × 120 mg/kg,73%
same,Tumor Weight,solid Sarcoma 180; 1 × 120 mg/kg,"0,87 ± 0,41 g"
same,T/C,solid Sarcoma 180; 3 × 60 mg/kg,76%
same,Tumor Weight,solid Sarcoma 180; 3 × 60 mg/kg,"0,91 ± 0,25 g"
same,T/C,solid Sarcoma 180; 3 × 100 mg/kg,53%
same,Tumor Weight,solid Sarcoma 180; 3 × 100 mg/kg,"0,63 ± 0,14 g"
"O=C([O][Ti+2][O]C(=O)C(Cl)(Cl)Cl)C(Cl)(Cl)Cl.c1cc[cH-]c1.c1cc[cH-]c1 [Compound 4, Bis(trichloroacetato)bis(.eta.^5 -cyclopentadienyl)titanium(IV)]",Optimal Treating Rate,Ehrlich ascites tumor,100%
same,Therapeutic Index (LD50/ED90),Ehrlich ascites tumor,"5,5"
same,ILS (increase in life span),ascitic Sarcoma 180; 1 × 220 mg/kg,4%
same,MST (mean survival time),ascitic Sarcoma 180; 1 × 220 mg/kg,"17,2 (15-20) d"
same,ILS (increase in life span),ascitic Sarcoma 180; 1 × 320 mg/kg,96%
same,Survivors/Animals Treated,ascitic Sarcoma 180; 1 × 320 mg/kg,1/5
same,MST (mean survival time),ascitic Sarcoma 180; 1 × 320 mg/kg,"32,4 (18-80) d"
same,T/C,B16 Melanoma; 1 × 320 mg/kg i.p.,85%
same,T/C,B16 Melanoma; 3 × 300 mg/kg i.p.,41%
same,T/C,Colon 38 Carcinoma; 1 × 320 mg/kg i.p.,48%
same,T/C,solid Sarcoma 180; 1 × 220 mg/kg,96%
same,Tumor Weight,solid Sarcoma 180; 1 × 220 mg/kg,"1,14 ± 0,26 g"
same,T/C,solid Sarcoma 180; 1 × 320 mg/kg,67%
same,Tumor Weight,solid Sarcoma 180; 1 × 320 mg/kg,"0,79 ± 0,28 g"
same,T/C,solid Sarcoma 180; 3 × 200 mg/kg,106%
same,Tumor Weight,solid Sarcoma 180; 3 × 200 mg/kg,"1,26 ± 0,30 g"
same,Toxicity Deaths/Animals Treated,solid Sarcoma 180; 3 × 300 mg/kg,1/5
same,T/C,solid Sarcoma 180; 3 × 300 mg/kg,37%
same,Tumor Weight,solid Sarcoma 180; 3 × 300 mg/kg,"0,44 ± 0,14 g"
titanocene dichloride [reference compound],Optimal Treating Rate,Ehrlich ascites tumor,90-100%
same,Therapeutic Index (LD50/ED90),Ehrlich ascites tumor,"3,3"
same,ILS (increase in life span),"ascitic Sarcoma 180; 1 × 40 mg/kg, group of 5",81%
same,Survivors/Animals Treated,"ascitic Sarcoma 180; 1 × 40 mg/kg, group of 5",1/5
same,MST (mean survival time),"ascitic Sarcoma 180; 1 × 40 mg/kg, group of 5","32,0 (18-80) d"
same,ILS (increase in life span),"ascitic Sarcoma 180; 1 × 40 mg/kg, group of 6",32%
same,MST (mean survival time),"ascitic Sarcoma 180; 1 × 40 mg/kg, group of 6","27,3 (20-49) d"
same,ILS (increase in life span),"ascitic Sarcoma 180; 1 × 50 mg/kg, group of 5",184%
same,Survivors/Animals Treated,"ascitic Sarcoma 180; 1 × 50 mg/kg, group of 5",2/5
same,MST (mean survival time),"ascitic Sarcoma 180; 1 × 50 mg/kg, group of 5","50,0 (25-80) d"
same,ILS (increase in life span),"ascitic Sarcoma 180; 1 × 50 mg/kg, group of 6",161%
same,Survivors/Animals Treated,"ascitic Sarcoma 180; 1 × 50 mg/kg, group of 6",3/6
same,MST (mean survival time),"ascitic Sarcoma 180; 1 × 50 mg/kg, group of 6","54,0 (25-80) d"
same,T/C,B16 Melanoma; 1 × 50 mg/kg i.p.,61%
same,T/C,B16 Melanoma; 3 × 40 mg/kg i.p.,69%
same,T/C,B16 Melanoma; 3 × 50 mg/kg i.p.,37%
same,T/C,Colon 38 Carcinoma; 1 × 50 mg/kg i.p.,41%
same,T/C,Colon 38 Carcinoma; 3 × 40 mg/kg i.p.,28%
same,T/C (based on mean relative volume of tumor),Rectum Adenocarcinoma; 5 × 15 mg/kg,38%
same,T/C (based on mean relative volume of tumor),Lung Adenocarcinoma; 5 × 15 mg/kg,34%
same,T/C (based on mean relative volume of tumor),[1]; 5 × 15 mg/kg,110%
same,T/C (based on mean relative volume of tumor),Mammary Carcinoma; 5 × 15 mg/kg,49%
same,T/C,solid Sarcoma 180; 1 × 40 mg/kg,111%
same,Tumor Weight,solid Sarcoma 180; 1 × 40 mg/kg,"1,31 ± 0,24 g"
same,T/C,solid Sarcoma 180; 1 × 50 mg/kg,66%
same,Tumor Weight,solid Sarcoma 180; 1 × 50 mg/kg,"0,78 ± 0,34 g"
same,T/C,solid Sarcoma 180; 3 × 40 mg/kg,58%
same,Tumor Weight,solid Sarcoma 180; 3 × 40 mg/kg,"0,75 ± 0,32 g"
same,T/C,solid Sarcoma 180; 3 × 50 mg/kg,23%
same,Tumor Weight,solid Sarcoma 180; 3 × 50 mg/kg,"0,29 ± 0,14 g"
"Cl.Cl.Nc1ccc([S][Ti]([S]c2ccc(N)cc2)([CH]2C=CC=C2)[CH]2C=CC=C2)cc1 [Compound 1, Bis(p-aminothiophenolato)bis(.eta.^5 -cyclopentadienyl)titanium(IV)-dihydrochloride]",Optimal Treating Rate,Ehrlich ascites tumor,100%
same,Therapeutic Index (LD50/ED90),Ehrlich ascites tumor,"4,3"
same,ILS (increase in life span),ascitic Sarcoma 180; 1 × 60 mg/kg,15%
same,ILS (increase in life span),ascitic Sarcoma 180; 1 × 100 mg/kg,139%
same,Survivors/Animals Treated,ascitic Sarcoma 180; 1 × 100 mg/kg,1/5
same,MST (mean survival time),ascitic Sarcoma 180; 1 × 100 mg/kg,"39,4 (19-80) d"
same,T/C,B16 Melanoma; 1 × 100 mg/kg i.p.,80%
same,T/C,B16 Melanoma; 3 × 60 mg/kg i.p.,36%
same,T/C,Colon 38 Carcinoma; 1 × 100 mg/kg i.p.,61%
same,T/C,Colon 38 Carcinoma; 3 × 60 mg/kg i.p.,38%
same,T/C,solid Sarcoma 180; 1 × 60 mg/kg,109%
same,Tumor Weight,solid Sarcoma 180; 1 × 60 mg/kg,"1,30 ± 0,30 g"
same,T/C,solid Sarcoma 180; 1 × 100 mg/kg,86%
same,Tumor Weight,solid Sarcoma 180; 1 × 100 mg/kg,"1,03 ± 0,26 g"
same,T/C,solid Sarcoma 180; 3 × 60 mg/kg,39%
same,Tumor Weight,solid Sarcoma 180; 3 × 60 mg/kg,"0,47 ± 0,12 g"
